Measurements taken from patent US4835160A, “Derivatives of pyridoindole, having anti-tumor properties” (Sanofi, priority 1986, dated 1989).

Assays:
melanoma B 16 = experiment: Test for melanoma B 16; format: in vivo, BDF1 hybrid mice; conditions: D1-D9; for Number of survivors: day D60; for T/C %: survival time
Experimental: (§1) The antitumour activity was tested in vivo on various tumours inoculated in various ways according to the following general protocol:
(§2) All the male or female mice are inoculated on day D0 with a known quantity of viable tumour cells for ascitic tumours or with a known tumour fragment for solid tumours.
(§3) They are then distributed into various groups. Each group, corresponding to the animals treated by the product under test, is made up of 10 mice. The product under test is dissolved in distilled water and it is administered n times (Dx-Dy), n, y, and x varying according to the protocol chosen, at the rate of 0.1 ml of solution per 10 g by weight of mice treated and at specific doses for each protocol.
(§4) The "negative control" group, corresponding to the animals which are not treated by the product, contains 2√N animals, N being equal to or greater than the total number of mice treated by the product in the same experiment.
(§5) Finally, the tests can also be carried out at the same time as the study of a group called "positive control", of ten animals, which is treated by a molecule, known for its antitumour activity and which can vary according to the protocol chosen, in the same conditions as the groups treated by the product under test.
(§6) The antitumour activity is evaluated, in the case of ascitic tumours, by considering the increase in the survival time of the animals treated in comparison to that of the animals in the "negative control" group, according to the formula: [formula]
(§7) Also, a product is considered as toxic at the dose studied when this T/C value is equal to or less than 85%. In addition, a product is also considered as toxic at the dose studied when the weight variation, expressed in grams and calculated by the formula: […]
(d) Test for melanoma B 16 (GERAN et al., Cancer Chemother., 1972, 2, 07-75).
The tests are carried out with BDF1 hybrid mice inoculated by intraperitoneal route with 0.5 ml of a homogenate of melanoma B 16 made up from 1 g of tumour in 10 ml of physiological serum. The compound under test is administered for 9 days (D1-D9) by intraperitoneal route. The positive control for the test is Cis-Platine administered in the same conditions. The number of surviving animals is evaluated on day D60.

leukemia P 388 = experiment: Test of leukemia P 388; IP/IP, D1-5; format: in vivo, CDF1 hybrid mice; conditions: D1-D5; for Number of survivors: day D30; for T/C %: survival time
Experimental: (2) In vivo: (GERAN et al., Cancer Chemother., 1972, 2, 07-57):
as §1, §2, §3, §4, §5, §6
The criterion for activity varies according to the protocol.
as §7
"Average weight of the group measured on day 5--Average weight of the same group measured on day 1"
is equal to or less than 4 g.
(a) Test of lelukemia P 388; IP/IP, D1-5 (GERAN et al., Cancer Chemother., 1972, 2, 07-57).
The tests are carried out with CDF1 hybrid mice inoculated by intraperitoneal route with 10^6 leukemia cells from the P 388 line. The compound under test is administered for 5 successive days (D1-D5) by intraperitoneal route. The positive control for the test is 5-fluorouracile which is administered in the same conditions. The number of surviving animals is evaluated on day D30.

[1] = test system: leukemia tumour line L 1210; experiment: In vitro cytotoxic activity on leukemia tumour line L 1210; format: cell-based; conditions: Mus musculus, L1210, 48 h, L 1210, 48 hours contact, 37° C.; read-out: I D 50 (concentration which inhibits the proliferation of the cells by 50%)
Experimental: (1) In vitro: ([…] et al., Chem. Biol. Interaction, 1979, 25, 45-58). The cytotoxic activity of the compounds of the invention has been evaluated by in vitro tests. These tests consist of adding increasing concentrations of the compound under test to a cellular culture of the leukemia tumour line L 1210 in an exponential phase of growth. The cellules are incubated at 37° C. in a CO2 incubator and counted every 24 hours. The calculation of the I D 50 (concentration of the product, expressed in 1^-1 micromole, which inhibits the proliferation of the cells by 50%) is made after 48 hours contact.

leukemia L 1210 = experiment: Test for leukemia L 1210 IP/D1 IV; format: in vivo, CDF1 hybrid mice; conditions: for Number of survivors: day D60; for T/C %: survival time
Experimental: as §1, §2, §3, §4, §5, §6, §7
The tests are carried out with CDF1 hybrid mice inoculated by intraperitoneal route with 10^5 leukemia cells from the L 1210 line. The compound under test is administered for 5 days (D1-D5) by intraperitoneal route. The positive control for the test is 5-fluorouracile administered in the same conditions. The number of surviving animals is evaluated on day D60.
(g) Test for leukemia L 1210 IP/D1 IV. (GERAN et al., Cancer Chemother., 1972, 2, 07-57).
The test is carried out according to the same protocol as that described for test (c), the compound under test being administered by intravenous route only on day D1.

in vivo [2] = experiment: in vivo; design: species or system female CDF1 hybrid mice; conditions: mouse, iv
Experimental: In addition the administration, to healthy female CDF1 hybrid mice, in a single injection by intravenous route with a perfusor, lasting 4 minutes, of the compounds under test in solution in physiological serum at a rate of 0.1 ml of solution per 10 g weight of the animals has enabled it to be established that the compounds are also well tolerated at a high dosage in these conditions.

in vivo [3] = experiment: in vivo; design: species or system CDF1 hybrid mice; conditions: mouse, ip, 50 mg/kg
From the text: The compounds of the invention benefit from a good tolerance and a weak toxicity.
Thus the administration, to healthy CDF1 hybrid mice, in a single injection by intraperitoneal route, of the compounds under test, has enabled it to be established that the product is perfectly tolerated at a high dosage since the survival rate of the animals of the experiment was 100 out of 100 thirteen days after administration.

In the case of `CCN(CC)CCCNc1ncc(C)c2c1c1cc(O)ccc1n2C` [Derivative No. 11, 1-(3-diethylaminopropylamino)-4,5-dimethyl-8-hydroxy-5H-pyrido[4,3-b]indole], the “Median day of survival” value (melanoma B 16; 1.25 mg/kg IP) is reported as 32.25 days, the “Variation by weight” value (melanoma B 16; 1.25 mg/kg IP) is reported as -2.5 g and the Number of survivors (melanoma B 16; 1.25 mg/kg IP) is reported as 0/10. The T/C % (melanoma B 16; 1.25 mg/kg IP) was 133%, the “Median day of survival” value (melanoma B 16; 2.5 mg/kg IP) was 35.25 days and the “Variation by weight (g)” value (melanoma B 16; 2.5 mg/kg IP) was “+0.6 g”. The Number of survivors (melanoma B 16; 2.5 mg/kg IP) was 0/10, the T/C % (melanoma B 16; 2.5 mg/kg IP) was 145% and the “Median day of survival” value (melanoma B 16; 5 mg/kg IP) was 41.25 days. For the same compound, the “Variation by weight (g)” value (melanoma B 16; 5 mg/kg IP) was “+0.2 g”, the Number of survivors (melanoma B 16; 5 mg/kg IP) was 3/10 and the T/C % (melanoma B 16; 5 mg/kg IP) was 170%. The “Median day of survival” value (melanoma B 16; 10 mg/kg IP) was 19.3 days, the “Variation by weight” value (melanoma B 16; 10 mg/kg IP) was -1.0 g and the Number of survivors (melanoma B 16; 10 mg/kg IP) was 0/10. The T/C % (melanoma B 16; 10 mg/kg IP) was 79%, the “Median day of survival” value (leukemia P 388; 2.5 mg/kg IP) was 17.25 days and the “Variation by weight (g)” value (leukemia P 388; 2.5 mg/kg IP) was “+1.2 g”. The Number of survivors (leukemia P 388; 2.5 mg/kg IP) was 0/10, the T/C % (leukemia P 388; 2.5 mg/kg IP) was 149% and the “Median day of survival” value (leukemia P 388; 5 mg/kg IP) was 19.25 days. For the same compound, the “Variation by weight (g)” value (leukemia P 388; 5 mg/kg IP) was “+0.7 g”, the Number of survivors (leukemia P 388; 5 mg/kg IP) was 0/10 and the T/C % (leukemia P 388; 5 mg/kg IP) was 166%. The “Median day of survival” value (leukemia P 388; 10 mg/kg IP) was 23.75 days, the “Variation by weight (g)” value (leukemia P 388; 10 mg/kg IP) was “+0.2 g” and the Number of survivors (leukemia P 388; 10 mg/kg IP) was 2/10. The T/C % (leukemia P 388; 10 mg/kg IP) was 205%, the “Median day of survival” value (leukemia P 388; 20 mg/kg IP) was 7.4 days and the “Variation by weight” value (leukemia P 388; 20 mg/kg IP) was -2.8 g. For the same compound, the Number of survivors (leukemia P 388; 20 mg/kg IP) was 0/10, the T/C % (leukemia P 388; 20 mg/kg IP) was 64% and the IC50 [1] was 30 nM. For the same compound, the “Median day of survival” value (leukemia L 1210; 20 mg/kg IV) was 11.8 days, the “Variation by weight” value (leukemia L 1210; 20 mg/kg IV) was -0.4 g and the Number of survivors (leukemia L 1210; 20 mg/kg IV) was 0/10. The T/C % (leukemia L 1210; 20 mg/kg IV) was 132%, the “Median day of survival” value (leukemia L 1210; 40 mg/kg IV) was 13.3 days and the “Variation by weight” value (leukemia L 1210; 40 mg/kg IV) was -0.2 g. The Number of survivors (leukemia L 1210; 40 mg/kg IV) was 0/10, the T/C % (leukemia L 1210; 40 mg/kg IV) was 149% and the survival at 192 h (in vivo [2]; 40 mg/kg) was 100%. The survival at 192 h (in vivo [2]; 50 mg/kg) was 100% and the survival at 312 h (in vivo [3]) was 100%.
